Results taken from patent publication US20240174662A1, “SMALL MOLECULE INHIBITORS OF SALT INDUCIBLE KINASES” (Janssen Biotech, Inc., priority 2021, published 2024).

target: SIK2 (Homo sapiens (Human), UniProt Q9H0K1); experiment: SIK2 Enzymatic Assay Version 2 (High ATP); type: biochemical; details: 3 mM ATP and 200 μM HDAC5tide final, ADP-Glo Max luminescence
Outline: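 Run at room temperature; SIK2 enzyme at 6 nM (2× final) preincubated with compound 30 min before reaction. ADP formation detected by ADP-Glo Max (2 h reagent, 1 h detection) with luminescence read-out.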

SIK2, sequence (Q9H0K1 whole entry, species assumed): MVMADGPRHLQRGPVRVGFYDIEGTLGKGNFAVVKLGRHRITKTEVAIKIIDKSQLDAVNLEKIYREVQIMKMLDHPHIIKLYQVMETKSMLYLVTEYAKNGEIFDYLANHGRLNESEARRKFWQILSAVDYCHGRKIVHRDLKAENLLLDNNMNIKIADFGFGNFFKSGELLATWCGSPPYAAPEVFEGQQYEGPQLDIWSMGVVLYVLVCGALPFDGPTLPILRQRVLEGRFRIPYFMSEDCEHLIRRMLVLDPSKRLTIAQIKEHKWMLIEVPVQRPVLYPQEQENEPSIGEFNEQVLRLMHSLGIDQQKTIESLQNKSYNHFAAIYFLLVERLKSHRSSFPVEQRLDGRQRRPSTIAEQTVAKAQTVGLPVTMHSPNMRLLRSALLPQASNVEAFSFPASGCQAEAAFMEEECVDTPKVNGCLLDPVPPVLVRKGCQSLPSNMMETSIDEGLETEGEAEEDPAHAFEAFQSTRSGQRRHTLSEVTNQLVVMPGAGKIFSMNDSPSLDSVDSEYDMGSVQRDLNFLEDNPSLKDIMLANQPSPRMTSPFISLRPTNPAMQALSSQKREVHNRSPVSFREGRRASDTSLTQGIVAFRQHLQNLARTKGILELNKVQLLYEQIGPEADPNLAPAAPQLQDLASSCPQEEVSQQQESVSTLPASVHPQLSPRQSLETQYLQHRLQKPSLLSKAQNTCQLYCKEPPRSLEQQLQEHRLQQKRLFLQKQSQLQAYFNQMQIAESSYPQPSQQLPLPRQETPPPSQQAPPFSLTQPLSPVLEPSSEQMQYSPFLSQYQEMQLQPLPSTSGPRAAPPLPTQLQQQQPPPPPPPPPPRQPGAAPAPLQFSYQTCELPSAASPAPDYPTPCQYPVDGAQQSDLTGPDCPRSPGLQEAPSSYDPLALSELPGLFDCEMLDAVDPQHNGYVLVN

Row | Compound | IC50 [nM]
1 | Cc1cnc(Nc2cc3cc(-c4c(OC[C@H]5CCN5C)cnn4C)ccn3n2)cn1 [Example 49, 5-[2-methyl-4-[[(2R)-1-methylazetidin-2-yl]methoxy]pyrazol-3-yl]-N-(5-methylpyrazin-2-yl)pyrazolo[1,5-a]pyridin-2-amine] | 5.3
2 | CN1CC[C@@H]1COc1cnn(C)c1-c1ccn2nc(Nc3ccc(C4CC4)nn3)cc2c1 [Example 50, N-(6-cyclopropylpyridazin-3-yl)-5-[2-methyl-4-[[(2R)-1-methylazetidin-2-yl]methoxy]pyrazol-3-yl]pyrazolo[1,5-a]pyridin-2-amine] | 2.6
3 | CCN1CC[C@@H]1COc1cnn(C)c1-c1ccn2nc(NC(=O)C3CC3)cc2c1 [Example 52, N-[5-[4-[[(2R)-1-ethylazetidin-2-yl]methoxy]-2-methyl-pyrazol-3-yl]pyrazolo[1,5-a]pyridin-2-yl]cyclopropanecarboxamide] | 3.6
4 | CC(C)N1CC[C@@H]1COc1cnn(C)c1-c1ccn2nc(NC(=O)C3CC3)cc2c1 [Example 53, N-[5-[4-[[(2R)-1-isopropylazetidin-2-yl]methoxy]-2-methyl-pyrazol-3-yl]pyrazolo[1,5-a]pyridin-2-yl]cyclopropanecarboxamide] | 68.3
5 | Cc1cc(Nc2cc3cc(-c4c(OC[C@H]5CCN5C)cnn4C)ccn3n2)ncn1 [Example 55, 5-[2-methyl-4-[[(2R)-1-methylazetidin-2-yl]methoxy]pyrazol-3-yl]-N-(6-methylpyrimidin-4-yl)pyrazolo[1,5-a]pyridin-2-amine] | 1.3
6 | CC(=O)N1CC[C@@H]1COc1cnn(C)c1-c1ccn2nc(NC(=O)C3CC3)cc2c1 [Example 56, N-[5-[4-[[(2R)-1-acetylazetidin-2-yl]methoxy]-2-methyl-pyrazol-3-yl]pyrazolo[1,5-a]pyridin-2-yl]cyclopropanecarboxamide] | 2500
7 | Cc1nc(C)c(C)c(Nc2cc3cc(-c4c(OC[C@H]5CCN5C)cnn4C)ccn3n2)n1 [Example 57, 5-[2-methyl-4-[[(2R)-1-methylazetidin-2-yl]methoxy]pyrazol-3-yl]-N-(2,5,6-trimethylpyrimidin-4-yl)pyrazolo[1,5-a]pyridin-2-amine] | 471
8 | Cc1cc(C)c(Nc2cc3cc(-c4c(OC[C@H]5CCN5C)cnn4C)ccn3n2)nn1 [Example 61, N-(4,6-dimethylpyridazin-3-yl)-5-[2-methyl-4-[[(2R)-1-methylazetidin-2-yl]methoxy]pyrazol-3-yl]pyrazolo[1,5-a]pyridin-2-amine] | 1140
9 | CCN1CC[C@@H]1COc1cnn(C)c1-c1ccn2nc(Nc3cc(C)nc(C)n3)cc2c1 [Example 62, N-(2,6-dimethylpyrimidin-4-yl)-5-[4-[[(2R)-1-ethylazetidin-2-yl]methoxy]-2-methyl-pyrazol-3-yl]pyrazolo[1,5-a]pyridin-2-amine] | 0.9
10 | Cc1cc(Nc2cc3cc(-c4c(OC[C@H]5CCN5C)cnn4C)ccn3n2)nc(C(F)(F)F)n1 [Example 63, 5-[2-methyl-4-[[(2R)-1-methylazetidin-2-yl]methoxy]pyrazol-3-yl]-N-[6-methyl-2-(trifluoromethyl)pyrimidin-4-yl]pyrazolo[1,5-a]pyridin-2-amine] | 1.1
11 | Cc1nccc(Nc2cc3cc(-c4c(OC[C@H]5CCN5C)cnn4C)ccn3n2)n1 [Example 64, 5-[2-methyl-4-[[(2R)-1-methylazetidin-2-yl]methoxy]pyrazol-3-yl]-N-(2-methylpyrimidin-4-yl)pyrazolo[1,5-a]pyridin-2-amine] | 2
12 | CCN1CC[C@@H]1COc1cnn(C)c1-c1ccn2nc(Nc3ccnc(C)n3)cc2c1 [Example 65, 5-[4-[[(2R)-1-ethylazetidin-2-yl]methoxy]-2-methyl-pyrazol-3-yl]-N-(2-methylpyrimidin-4-yl)pyrazolo[1,5-a]pyridin-2-amine] | < 0.847
13 | CCN1CC[C@@H]1COc1cnn(C)c1-c1ccn2nc(NC(=O)[C@@H]3C[C@H]3C)cc2c1 [Example 66, (1R,2R)—N-[5-[4-[[(2R)-1-ethylazetidin-2-yl]methoxy]-2-methyl-pyrazol-3-yl]pyrazolo[1,5-a]pyridin-2-yl]-2-methyl-cyclopropanecarboxamide] | 1.4
14 | CCN1CC[C@@H]1COc1cnn(C)c1-c1ccn2nc(Nc3ccc(C)nn3)cc2c1 [Example 68, 5-[4-[[(2R)-1-ethylazetidin-2-yl]methoxy]-2-methyl-pyrazol-3-yl]-N-(6-methylpyridazin-3-yl)pyrazolo[1,5-a]pyridin-2-amine] | < 0.847
15 | CN1CC[C@@H]1COc1cnn(C)c1-c1ccn2nc(NC(=O)[C@@H]3C[C@@H]3F)cc2c1 [Example 69, (1S,2S)-2-fluoro-N-[5-[2-methyl-4-[[(2R)-1-methylazetidin-2-yl]methoxy]pyrazol-3-yl]pyrazolo[1,5-a]pyridin-2-yl]cyclopropanecarboxamide] | 30.3
16 | CN1CC[C@@H]1COc1cnn(C)c1-c1ccn2nc(NC(=O)C3CC3(F)F)cc2c1 (stereo partly drawn) [Example 72, 2,2-difluoro-N-[5-[2-methyl-4-[[(2R)-1-methylazetidin-2-yl]methoxy]pyrazol-3-yl]pyrazolo[1,5-a]pyridin-2-yl]cyclopropanecarboxamide] | 52.1

Row | Compound | IC50 [nM]
17 | CCN1CC[C@@H]1COc1cnn(C)c1-c1ccn2nc(Nc3cc(C)nc(C(F)(F)F)n3)cc2c1 [Example 73, 5-[4-[[(2R)-1-ethylazetidin-2-yl]methoxy]-2-methyl-pyrazol-3-yl]-N-[6-methyl-2-(trifluoromethyl)pyrimidin-4-yl]pyrazolo[1,5-a]pyridin-2-amine] | < 0.847
18 | Cc1onc(O[C@@H]2CCNC2)c1-c1ccn2nc(NC(=O)C3CC3)cc2c1 [Example 74, N-[5-[5-methyl-3-[(3R)-pyrrolidin-3-yl]oxy-isoxazol-4-yl]pyrazolo[1,5-a]pyridin-2-yl]cyclopropanecarboxamide] | 144
19 | Cc1onc(O[C@H]2CCNC2)c1-c1ccn2nc(NC(=O)C3CC3)cc2c1 [Example 75, N-[5-[5-methyl-3-[(3S)-pyrrolidin-3-yl]oxy-isoxazol-4-yl]pyrazolo[1,5-a]pyridin-2-yl]cyclopropanecarboxamide] | 35
20 | COC1(COc2noc(C)c2-c2ccn3nc(NC(=O)C4CC4)cc3c2)CNC1 [Example 76, N-[5-[3-[(3-methoxyazetidin-3-yl)methoxy]-5-methyl-isoxazol-4-yl]pyrazolo[1,5-a]pyridin-2-yl]cyclopropanecarboxamide] | 12.2
21 | Cc1onc(OCC2(C#N)CNC2)c1-c1ccn2nc(NC(=O)C3CC3)cc2c1 [Example 77, N-[5-[3-[(3-cyanoazetidin-3-yl)methoxy]-5-methyl-isoxazol-4-yl]pyrazolo[1,5-a]pyridin-2-yl]cyclopropanecarboxamide] | 12.9
22 | Cc1onc(OC[C@H]2CN(C)CCO2)c1-c1ccn2nc(NC(=O)C3CC3)cc2c1 [Example 79, N-[5-[5-methyl-3-[[(2R)-4-methylmorpholin-2-yl]methoxy]isoxazol-4-yl]pyrazolo[1,5-a]pyridin-2-yl]cyclopropanecarboxamide] | 120
23 | Cc1onc(O[C@H]2CNC[C@H]2F)c1-c1ccn2nc(NC(=O)C3CC3)cc2c1 [Example 80, N-[5-[3-[(3S,4R)-4-fluoropyrrolidin-3-yl]oxy-5-methyl-isoxazol-4-yl]pyrazolo[1,5-a]pyridin-2-yl]cyclopropanecarboxamide] | 146
24 | Cc1onc(OC[C@]23CN[C@H](CO2)C3)c1-c1ccn2nc(NC(=O)C3CC3)cc2c1 [Example 81, N-[5-[5-methyl-3-[[(1S,4S)-5-oxa-2-azabicyclo[2.2.1]heptan-4-yl]methoxy]isoxazol-4-yl]pyrazolo[1,5-a]pyridin-2-yl]cyclopropanecarboxamide] | 9.7
25 | Cc1onc(O[C@H]2CNC[C@@H]2F)c1-c1ccn2nc(NC(=O)C3CC3)cc2c1 [Example 82, N-[5-[3-[(3S,4S)-4-fluoropyrrolidin-3-yl]oxy-5-methyl-isoxazol-4-yl]pyrazolo[1,5-a]pyridin-2-yl]cyclopropanecarboxamide] | 3950
26 | Cc1onc(OCC2(F)CNC2)c1-c1ccn2nc(NC(=O)C3CC3)cc2c1 [Example 83, N-[5-[3-[(3-fluoroazetidin-3-yl)methoxy]-5-methyl-isoxazol-4-yl]pyrazolo[1,5-a]pyridin-2-yl]cyclopropanecarboxamide] | 10.9
27 | Cc1onc(OCC2(F)CN(C)C2)c1-c1ccn2nc(NC(=O)C3CC3)cc2c1 [Example 84, N-[5-[3-[(3-fluoro-1-methyl-azetidin-3-yl)methoxy]-5-methyl-isoxazol-4-yl]pyrazolo[1,5-a]pyridin-2-yl]cyclopropanecarboxamide] | 204
28 | Cc1onc(O[C@@H]2CN[C@H](C)C2)c1-c1ccn2nc(NC(=O)C3CC3)cc2c1 [Example 85, N-[5-[5-methyl-3-[(3S,5R)-5-methylpyrrolidin-3-yl]oxy-isoxazol-4-yl]pyrazolo[1,5-a]pyridin-2-yl]cyclopropanecarboxamide] | 32.1
29 | Cc1onc(OC[C@H]2CNCC(C)(C)O2)c1-c1ccn2nc(NC(=O)C3CC3)cc2c1 [Example 86, N-[5-[3-[[(2R)-6,6-dimethylmorpholin-2-yl]methoxy]-5-methyl-isoxazol-4-yl]pyrazolo[1,5-a]pyridin-2-yl]cyclopropanecarboxamide] | 1.3
30 | Cc1onc(OC[C@H]2CCN2C)c1-c1ccn2nc(NC(=O)C3CC3)cc2c1 [Example 87, N-[5-[5-methyl-3-[[(2R)-1-methylazetidin-2-yl]methoxy]isoxazol-4-yl]pyrazolo[1,5-a]pyridin-2-yl]cyclopropanecarboxamide] | 16.5
31 | CO[C@H]1CNC[C@H]1Oc1noc(C)c1-c1ccn2nc(NC(=O)C3CC3)cc2c1 [Example 88, N-[5-[3-[(3R,4S)-4-methoxypyrrolidin-3-yl]oxy-5-methyl-isoxazol-4-yl]pyrazolo[1,5-a]pyridin-2-yl]cyclopropanecarboxamide] | 11.5
32 | Cc1onc(OC[C@H]2NCC2(C)C)c1-c1ccn2nc(NC(=O)C3CC3)cc2c1 [Example 89, N-[5-[3-[[(2S)-3,3-dimethylazetidin-2-yl]methoxy]-5-methyl-isoxazol-4-yl]pyrazolo[1,5-a]pyridin-2-yl]cyclopropanecarboxamide] | 15.9
